Results on one molecule are retold here after ChEMBL document CHEMBL4196234, “Deciphering Binding Interactions of IL-23R with HDX-MS: Mapping Protein and Macrocyclic Dodecapeptide Ligands” (ACS Med Chem Lett, 2018).

By IC50 is commonly meant the concentration that gives 50% inhibition.

Assay [1] concerns the target T1, Interleukin-23 receptor (Homo sapiens, UniProt Q5VWK5).
T1 sequence (Q5VWK5 whole entry): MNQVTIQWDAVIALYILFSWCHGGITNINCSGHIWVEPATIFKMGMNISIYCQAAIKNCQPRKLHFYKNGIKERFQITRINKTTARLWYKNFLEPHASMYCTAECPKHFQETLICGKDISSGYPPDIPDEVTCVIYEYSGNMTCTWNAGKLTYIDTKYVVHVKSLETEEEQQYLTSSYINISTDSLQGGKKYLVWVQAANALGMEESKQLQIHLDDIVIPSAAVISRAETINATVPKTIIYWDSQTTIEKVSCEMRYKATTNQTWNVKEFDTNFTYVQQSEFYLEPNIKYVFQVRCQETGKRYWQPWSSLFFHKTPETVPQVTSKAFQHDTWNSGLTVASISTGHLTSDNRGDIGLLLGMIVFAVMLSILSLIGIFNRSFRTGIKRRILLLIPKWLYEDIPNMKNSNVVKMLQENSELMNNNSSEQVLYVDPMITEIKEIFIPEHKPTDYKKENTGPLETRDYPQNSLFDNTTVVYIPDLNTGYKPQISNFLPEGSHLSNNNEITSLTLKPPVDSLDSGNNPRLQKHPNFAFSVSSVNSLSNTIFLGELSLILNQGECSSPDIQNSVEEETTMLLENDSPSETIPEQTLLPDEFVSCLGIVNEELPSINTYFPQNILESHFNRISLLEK
In words: Binding affinity to recombinant human flag/His-tagged IL-23R (1 to 353 residues) expressed in HEK293F cells measured over 90 secs by surface plasmon resonance assay. A general note: SPR reads the build-up and loss of mass on a sensor chip optically.

Assay [2] deals with T2, Interleukin-23 receptor (Homo sapiens) (UniProt Q5VWK5).
T2 sequence (whole entry): T1 sequence (Q5VWK5 whole entry)
Description: Binding affinity to recombinant human flag/His-tagged IL-23R (1 to 353 residues) expressed in HEK293F cells assessed as association rate constant measured over 90 secs by surface plasmon resonance assay.

Assay [3] has as its target T1, Interleukin-23 receptor. Description: Binding affinity to recombinant human flag/His-tagged IL-23R (1 to 353 residues) expressed in HEK293F cells assessed as disruption of biotinylated IL-23 binding to receptor preincubated for 1 hr followed by biotinylated IL-23 addition measured after 1 hr by TR-FRET assay. In kind it is cell-based. (In TR-FRET formats the signal depends on donor and acceptor labels being close together.)

In assay [4] the target is T1, Interleukin-23 receptor. Description: Binding affinity to recombinant human flag/His-tagged IL-23R (1 to 353 residues) expressed in HEK293F cells assessed as dissociation rate constant measured over 90 secs by surface plasmon resonance assay.
Assay [5] addresses T1, Interleukin-23 receptor. In words: Binding affinity to recombinant human flag/His-tagged IL-23R (1 to 353 residues) expressed in HEK293F cells assessed as disruption of biotinylated IL-23 binding to receptor preincubated for 1 hr followed by biotinylated IL-23 addition measured after over night incubation by AlphaLISA assay. The class given is cell-based.

As to `CC(=O)N[C@H]1CCSC[C@@H](C(=O)N[C@@H](Cc2ccc(OCCN)cc2)C(=O)N[C@@H](Cc2c[nH]c3ccccc23)C(=O)N[C@@](C)(CCCCN)C(=O)N[C@@H](CCC(=O)O)C(=O)N[C@@H](CC(N)=O)C(=O)NCC(N)=O)NC(=O)[C@H](CCC(N)=O)NC(=O)[C@H](Cc2c[nH]c3ccccc23)NC(=O)[C@H]([C@@H](C)O)NC(=O)[C@H](CCC(N)=O)NC1=O`, the values for the Kd on Interleukin-23 receptor [1] and at Interleukin-23 receptor [4] were 1.81 to 2 nM and 2.74 ×10⁻² (1/s), respectively. For the same molecule, the Ka in assay [2] is 1.51 ×10⁷ (1/Ms). The IC50 was found to be 5.1 nM at Interleukin-23 receptor [3] and 2.7 nM on Interleukin-23 receptor [5].
